The record followed here is patent publication US11254686B1 (Corvus Pharmaceuticals, Inc., priority 2017, dated 2022).

Structures are written as SMILES.

Common to all, as to format: biochemical
The target in one test is adenosine A2B receptor (Homo sapiens (Human), UniProt P29275). The experiment in a line: Adenosine receptor activity assay (Table 1), A2B activity. Particulars: for Ratio: A2A activity to the A2B activity, A2A/A2B; for IC50: read-out: Ave A2B cAMP IC50.
Another test addresses adenosine A2A receptor (Homo sapiens (Human), UniProt P29274). The experiment in a line: Adenosine receptor activity assay (Table 1), A2A activity. Particulars: read-out: Ave A2A cAMP IC50.
The next test concerns the target adenosine A1 receptor (Homo sapiens (Human), UniProt P30542). The experiment in a line: Adenosine receptor activity assay (Table 1), A1 cAMP. As to the method: (§1) Table 1. Compounds (e.g., Adenosine Receptor modulators) and activity assay results. The legend is as follows: A=<10 nM; B=10-50 nM; C=50-100 nM; D=100-500; and E=>500 nM. The ratio corresponds to the A2A activity to the A2B activity; or A2A/A2B.

Another test concerns the target adenosine A3 receptor (Homo sapiens (Human), UniProt P0DMS8). The experiment in a line: Adenosine receptor activity assay (Table 1), A3 cAMP. As to the method: as §1

Chain of adenosine A1 receptor (P30542 whole entry): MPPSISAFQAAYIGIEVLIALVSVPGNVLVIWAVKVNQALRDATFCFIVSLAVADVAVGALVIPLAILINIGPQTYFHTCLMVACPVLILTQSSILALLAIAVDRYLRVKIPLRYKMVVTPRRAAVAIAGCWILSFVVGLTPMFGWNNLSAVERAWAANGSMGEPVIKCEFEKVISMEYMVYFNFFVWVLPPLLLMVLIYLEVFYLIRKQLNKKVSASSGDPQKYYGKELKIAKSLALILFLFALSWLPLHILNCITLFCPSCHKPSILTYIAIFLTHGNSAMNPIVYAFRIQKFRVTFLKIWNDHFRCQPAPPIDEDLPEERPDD
Chain of adenosine A3 receptor (P0DMS8 whole entry): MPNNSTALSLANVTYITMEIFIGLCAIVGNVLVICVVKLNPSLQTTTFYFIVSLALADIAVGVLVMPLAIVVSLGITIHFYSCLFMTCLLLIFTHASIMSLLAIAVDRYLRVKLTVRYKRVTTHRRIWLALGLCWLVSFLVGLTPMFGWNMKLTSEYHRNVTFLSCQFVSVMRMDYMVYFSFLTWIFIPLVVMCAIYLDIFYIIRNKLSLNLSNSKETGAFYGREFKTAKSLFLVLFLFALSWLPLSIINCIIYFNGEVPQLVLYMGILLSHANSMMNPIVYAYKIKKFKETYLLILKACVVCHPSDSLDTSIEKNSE
Chain of adenosine A2B receptor (P29275 whole entry): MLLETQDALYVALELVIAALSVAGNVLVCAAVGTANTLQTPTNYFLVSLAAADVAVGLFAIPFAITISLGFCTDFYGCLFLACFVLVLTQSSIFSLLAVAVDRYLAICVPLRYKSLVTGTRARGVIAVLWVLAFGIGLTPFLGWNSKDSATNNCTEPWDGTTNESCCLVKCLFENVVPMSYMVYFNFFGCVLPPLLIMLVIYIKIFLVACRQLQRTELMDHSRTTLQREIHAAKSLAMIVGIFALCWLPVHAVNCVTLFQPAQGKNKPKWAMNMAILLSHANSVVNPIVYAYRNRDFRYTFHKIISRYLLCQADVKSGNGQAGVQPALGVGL
Chain of adenosine A2A receptor (P29274 whole entry): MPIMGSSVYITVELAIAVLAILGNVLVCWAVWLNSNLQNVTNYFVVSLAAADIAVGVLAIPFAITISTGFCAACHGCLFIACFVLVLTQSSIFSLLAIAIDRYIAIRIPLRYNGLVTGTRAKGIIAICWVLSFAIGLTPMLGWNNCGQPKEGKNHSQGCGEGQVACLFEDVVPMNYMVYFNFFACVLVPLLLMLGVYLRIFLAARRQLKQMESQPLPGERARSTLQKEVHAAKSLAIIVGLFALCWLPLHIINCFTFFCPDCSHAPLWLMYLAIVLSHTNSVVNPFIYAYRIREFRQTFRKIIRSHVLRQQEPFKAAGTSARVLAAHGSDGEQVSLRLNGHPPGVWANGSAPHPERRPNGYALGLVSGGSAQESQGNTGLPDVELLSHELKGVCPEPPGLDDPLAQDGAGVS

With `Cc1csc2c(C(=O)N3CC[C@H](O)C3)nc(N[C@@H](C)c3cncc(F)c3)nc12` [Example Z416, (2-(((S)-1-(5-Fluoropyridin-3-yl)ethyl)amino)-7-methylthieno[3,2-d]pyrimidin-4-yl)((S)-3-hydroxypyrrolidin-1-yl)methanone], at adenosine A2B receptor, the Ratio is listed as 52.64. Also, the half-maximal inhibitory concentration (IC50) was less than 10 nM at adenosine A2B receptor, 100 to 500 nM at adenosine A2A receptor, greater than 500 nM against adenosine A1 receptor and greater than 500 nM on adenosine A3 receptor.

Take `CNC1CN(C(=O)c2nc(N[C@@H](C)c3cncc(F)c3)nc3cc(C)sc23)C1` [Example Z418, (S)-(2-((1-(5-Fluoropyridin-3-yl)ethyl)amino)-6-methylthieno[3,2-d]pyrimidin-4-yl)(3-(methylamino)azetidin-1-yl)methanone]: on adenosine A2B receptor, the Ratio is 207.31. The IC50 is 10 to 50 nM at adenosine A2B receptor, greater than 500 nM on adenosine A2A receptor, greater than 500 nM against adenosine A1 receptor and greater than 500 nM against adenosine A3 receptor.

Turning to `COc1ccc(CCCNC(=O)c2nc(N[C@@H](C)c3cncc(F)c3)nc3ccsc23)cc1` [Example Z422, (S)-2-((1-(5-Fluoropyridin-3-yl)ethyl)amino)-N-(3-(4-methoxyphenyl)propyl)thieno[3,2-d]pyrimidine-4-carboxamide], at adenosine A2B receptor, the Ratio is given as 7.52. Also, the IC50 is 10 to 50 nM at adenosine A2B receptor, 100 to 500 nM at adenosine A2A receptor, greater than 500 nM at adenosine A1 receptor and greater than 500 nM against adenosine A3 receptor.

With `C[C@H](Nc1nc(C(=O)NCCc2cccc(O)c2)c2sccc2n1)c1cccnc1` [Example Z427, (S)—N-(3-Hydroxyphenethyl)-2-((1-(pyridin-3-yl)ethyl)amino)thieno[3,2-d]pyrimidine-4-carboxamide], the Ratio on adenosine A2B receptor is 5.03. Moreover, the half-inhibitory concentration (IC50) was 50 to 100 nM on adenosine A2B receptor, 100 to 500 nM at adenosine A2A receptor, 100 to 500 nM at adenosine A1 receptor and 100 to 500 nM at adenosine A3 receptor.

In the case of `C[C@H](Nc1nc(C(=O)NCCc2cccc(O)c2)c2sccc2n1)c1ccccn1` [Example Z428, (S)—N-(3-Hydroxyphenethyl)-2-((1-(pyridin-2-yl)ethyl)amino)thieno[3,2-d]pyrimidine-4-carboxamide], the Ratio at adenosine A2B receptor is on record as 10.94. The IC50 is 10 to 50 nM on adenosine A2B receptor, 100 to 500 nM on adenosine A2A receptor, greater than 500 nM on adenosine A1 receptor and greater than 500 nM at adenosine A3 receptor.

For `Cc1cc2nc(N[C@@H](C)c3cncc(F)c3)nc(C(=O)N3CC(NC(=O)OC(C)(C)C)C3)c2s1` [Example Z429, tert-Butyl (S)-(1-(2-((1-(5-Fluoropyridin-3-yl)ethyl)amino)-6-methylthieno[3,2-d]pyrimidine-4-carbonyl)azetidin-3-yl)carbamate], the Ratio at adenosine A2B receptor was 4.15. Moreover, the 50% inhibitory concentration (IC50) is less than 10 nM on adenosine A2B receptor, 10 to 50 nM at adenosine A2A receptor, 50 to 100 nM on adenosine A1 receptor and 10 to 50 nM against adenosine A3 receptor.

In the case of `COc1ccc([C@H](C)Nc2nc(C(=O)NCc3cccnc3)c3sccc3n2)cc1` [Example Z435, (S)-2-((1-(4-Methoxyphenyl)ethyl)amino)-N-(pyridin-3-ylmethyl)thieno[3,2-d]pyrimidine-4-carboxamide], at adenosine A2B receptor, the Ratio turned out to be 0.04. In addition, the IC50 on adenosine A2B receptor fell in the range of 100 to 500 nM; on adenosine A2A receptor, 10 to 50 nM; against adenosine A1 receptor, 100 to 500 nM; on adenosine A3 receptor it was 50 to 100 nM.

Consider `Cc1csc2c(C(=O)NCc3ccccn3)nc(N[C@@H](C)c3ccccn3)nc12` [Example Z451, (S)-7-Methyl-2-((1-(pyridin-2-yl)ethyl)amino)-N-(pyridin-2-ylmethyl)thieno[3,2-d]pyrimidine-4-carboxamide], for which, at adenosine A2B receptor, the Ratio turned out to be 0.35. The IC50 at adenosine A2B receptor was 10 to 50 nM; at adenosine A2A receptor it was 10 to 50 nM; against adenosine A1 receptor, 50 to 100 nM; against adenosine A3 receptor, 10 to 50 nM.

Regarding `Cc1csc2c(C(=O)NC3CCC3)nc(N[C@@H](C)c3ccccn3)nc12` [Example Z456, (S)—N-Cyclobutyl-7-methyl-2-((1-(pyridin-2-yl)ethyl)amino)thieno[3,2-d]pyrimidine-4-carboxamide], the Ratio on adenosine A2B receptor is on record as 2.47. Further, the concentration for half-maximal inhibition (IC50) on adenosine A2B receptor is less than 10 nM; on adenosine A2A receptor, 10 to 50 nM; against adenosine A1 receptor, greater than 500 nM; on adenosine A3 receptor it was 50 to 100 nM.

With `Cc1csc2c(C(=O)NCc3cccnc3)nc(N[C@@H](C)c3ccccn3)nc12` [Example Z458, (S)-7-Methyl-2-((1-(pyridin-2-yl)ethyl)amino)-N-(pyridin-3-ylmethyl)thieno[3,2-d]pyrimidine-4-carboxamide], the Ratio at adenosine A2B receptor stood at 0.72. The concentration for half-maximal inhibition (IC50) at adenosine A2B receptor is 10 to 50 nM; on adenosine A2A receptor, 10 to 50 nM; at adenosine A1 receptor it was greater than 500 nM; at adenosine A3 receptor, greater than 500 nM.

Regarding `Cc1csc2c(C(=O)N3CCCC3)nc(N[C@@H](C)c3ccccn3)nc12` [Example Z459, (S)-(7-methyl-2-((1-(pyridin-2-yl)ethyl)amino)thieno[3,2-d]pyrimidin-4-yl)(pyrrolidin-1-yl)methanone], the Ratio at adenosine A2B receptor is 2.40. Further, the IC50 is 10 to 50 nM at adenosine A2B receptor, 10 to 50 nM on adenosine A2A receptor, greater than 500 nM at adenosine A1 receptor and greater than 500 nM on adenosine A3 receptor.

With `Cc1cc2nc(N[C@@H](C)c3ccccn3)nc(C(=O)NCc3ccccn3)c2s1` [Example Z461, (S)-6-Methyl-2-((1-(pyridin-2-yl)ethyl)amino)-N-(pyridin-2-ylmethyl)thieno[3,2-d]pyrimidine-4-carboxamide], the Ratio at adenosine A2B receptor worked out at 3.15. Moreover, the IC50 is 10 to 50 nM at adenosine A2B receptor, 10 to 50 nM at adenosine A2A receptor, greater than 500 nM against adenosine A1 receptor and 50 to 100 nM on adenosine A3 receptor.

For the compound `Cc1cc2nc(N[C@@H](C)c3ccccn3)nc(C(=O)NCc3cccnc3)c2s1` [Example Z462, (S)-6-Methyl-2-((1-(pyridin-2-yl)ethyl)amino)-N-(pyridin-3-ylmethyl)thieno[3,2-d]pyrimidine-4-carboxamide], the Ratio on adenosine A2B receptor was determined as 2.70. Also, the IC50 is 10 to 50 nM on adenosine A2B receptor, 50 to 100 nM at adenosine A2A receptor, greater than 500 nM on adenosine A1 receptor and 50 to 100 nM on adenosine A3 receptor.

Consider `COC[C@@H]1CCN(C(=O)c2nc(N[C@@H](C)c3ccccn3)nc3cc(C)sc23)C1` [Example Z467, ((R)-3-(Methoxymethyl)pyrrolidin-1-yl)(6-methyl-2-(((S)-1-(pyridin-2-yl)ethyl)amino)thieno[3,2-d]pyrimidin-4-yl)methanone], for which, at adenosine A2B receptor, the Ratio worked out at 4.90. For the same compound, the 50% inhibitory concentration (IC50) at adenosine A2B receptor was 10 to 50 nM; on adenosine A2A receptor it was 100 to 500 nM; against adenosine A1 receptor, greater than 500 nM; at adenosine A3 receptor, 50 to 100 nM.

As to `COC[C@H]1CCN(C(=O)c2nc(N[C@@H](C)c3ccccn3)nc3cc(C)sc23)C1` [Example Z468, ((S)-3-(Methoxymethyl)pyrrolidin-1-yl)(6-methyl-2-(((S)-1-(pyridin-2-yl)ethyl)amino)thieno[3,2-d]pyrimidin-4-yl)methanone], the Ratio on adenosine A2B receptor came to 24.67. The IC50 on adenosine A2B receptor was 10 to 50 nM; at adenosine A2A receptor, greater than 500 nM; on adenosine A1 receptor it was greater than 500 nM; against adenosine A3 receptor it was greater than 500 nM.

As for `COc1ccc(CNC(=O)c2nc(N[C@@H](C)c3ccccn3)nc3cc(C)sc23)cn1` [Example Z469, (S)—N-((6-Methoxypyridin-3-yl)methyl)-6-methyl-2-((1-(pyridin-2-yl)ethyl)amino)thieno[3,2-d]pyrimidine-4-carboxamide], the Ratio at adenosine A2B receptor amounted to 36.71. The concentration for half-maximal inhibition (IC50) was 10 to 50 nM at adenosine A2B receptor, greater than 500 nM on adenosine A2A receptor, greater than 500 nM against adenosine A1 receptor and greater than 500 nM against adenosine A3 receptor.
